Read-outs that look alike come from different tables or passages of the source.
Experiments:
[1] = parameters: species or system human
[2] = tested on: efflux transporters (P-gp, MRP, BCRP); assay type: biochemical; conditions: human, inside-out vesicles from placental brush border membranes, pH 7.4, probe [3H]-estrone sulfate, 100 nM
[3] = tested on: efflux transporters (P-gp, MRP, BCRP); assay type: biochemical; conditions: human, inside-out vesicles from placental brush border membranes, pH 7.4, probe [3H]-paclitaxel, 40 nM
[4] = parameters: species or system human; remark: listed apart in the source

| normalized transfer (Clearance index) to antipyrine ([1]; Maternal-to-Fetal direction) | concentration in the fetal circuit at the end of the experimental period ([1]; M→F, 4-hour perfusion, initial donor concentration 50 ng/mL) [ng/mL] | drug remained in the maternal circuit ([1]; M→F, end of 4-hour perfusion) [%] | drug retained by the tissue ([1]; M→F, end of 4-hour perfusion) [%] | drug transferred to the fetal circuit ([1]; M→F, end of 4-hour perfusion) [%] | fetal/maternal concentration ratio ([1]; M→F, end of 4-hour perfusion) | appearance in the fetal circuit after start of perfusion ([1]; M→F, initial donor concentration 50 ng/mL) | IC50 at 3 min [2] [µM] | IC50 at 1 min [3] [µM] | normalized transfer (Clearance index) to antipyrine ([4]; Fetal-to-Maternal direction, p < 0.01 vs Maternal to Fetal) | concentration in the maternal circuit at the end of perfusion ([4]; F→M, 4 hours of perfusion, initial donor concentration 50 ng/mL) [ng/mL] | maternal/fetal concentration ratio ([4]; F→M, end of 4 hours of perfusion) | time to appearance in the maternal (recipient) circuit ([4]; F→M, initial donor concentration 50 ng/mL) | SMILES | transplacental transfer of antipyrine ([1]; marker compound, 20 μg/mL, dual perfusion, 4 h) |
| --- | --- | --- | --- | --- | --- | --- | --- | --- | --- | --- | --- | --- | --- | --- |
| 0.36 ± 0.07 | 8.8 ± 1.8 | 68 ± 5 | 14 ± 5 | 18 ± 4 | 0.26 ± 0.06 | within the initial five minutes | 30 | 11 | 0.48 ± 0.07 | 6.4 ± 1.0 | 0.19 ± 0.03 | less than 5 minutes | CC[C@H](C)C(=O)O[C@H]1C[C@H](O)C=C2C=C[C@H](C)[C@H](CC[C@@H](O)C[C@@H](O)CC(=O)O)[C@H]21 [Pravastatin, pravastatin] |  |
|  |  |  |  |  |  |  |  |  |  |  |  |  | Cc1cc(=O)n(-c2ccccc2)n1C [antipyrine] | approximately 50% |

From paper PMC3891837 (American journal of obstetrics and gynecology, 2013)
